Patent US11980596B2 (priority 2017, dated 2024)

Tested on: subjects with MDD at imminent risk for suicide
[1] = esketamine 84 mg, double-blind phase, N = 35
[2] = esketamine 84 mg, follow up phase, N = 27

Method: The study consisted of a screening evaluation performed within 24 hours (or up to 48 hours upon consultation with the Sponsor's medical monitor) prior to Day 1 dose, immediately followed by a 25-day double-blind treatment phase (Day 1 to 25) with twice a week dosing, and a 56-day follow up phase (Day 26 to Day 81). The study was designed as a POC study and therefore a two-sided 0.20 significance level was used.
Among 68 randomized subjects, 66 were included in the safety analysis set (defined as receiving at least one dose of study medication in the double-blind phase). […] All safety subjects (N=66) were included in the intent-to-treat (ITT) analysis set (defined as receiving at least one dose of study medication during the double-blind phase and having both the baseline and the Day 1, 4-hour postdose evaluation for the MADRS total score). Forty-nine subjects were included in the safety (FU) analysis set (defined as all subjects who have at least 1 visit during the follow up phase).

CN[C@]1(c2ccccc2Cl)CCCCC1=O [esketamine, (S)-2-(2-chlorophenyl)-2-(methylamino)cyclohexanone]
TEAE leading to study discontinuation: Dysgeusia [1]: 1 (2.9%) subjects (%) | TEAE leading to study discontinuation: Dyspnea [1]: 1 (2.9%) subjects (%) | TEAE leading to study discontinuation: Gastrointestinal disorders [1]: 1 (2.9%) subjects (%) | TEAE leading to study discontinuation: Nausea [1]: 1 (2.9%) subjects (%) | TEAE leading to study discontinuation: Nervous system disorders [1]: 2 (5.7%) subjects (%) | TEAE leading to study discontinuation: Panic attack [1]: 0 subjects (%) | TEAE leading to study discontinuation: Psychiatric disorders [1]: 2 (5.7%) subjects (%) | TEAE leading to study discontinuation: Respiratory, thoracic and mediastinal disorders [1]: 1 (2.9%) subjects (%) | TEAE leading to study discontinuation: Ventricular extrasystoles [1]: 1 (2.9%) subjects (%) | Total no. subjects with TEAE [1]: 33 | Total no. subjects with TEAE leading to study discontinuation [1]: 5 (14.3%) subjects (%) | Total no. subjects with a serious TEAE [1]: 4 (11.4%) subjects (%) | Total subjects with TEAE, % of subjects [1]: (94.3%) | Possibly related TEAE (esketamine 84 mg, double-blind phase, N = 35, possible, probable, very likely): 29 (82.9%) subjects (%) | AE Abdominal pain, % of subjects [2]: (3.7%) | AE Abdominal pain, no. subjects [2]: 1 | AE Abdominal tenderness, % of subjects [2]: (3.7%) | AE Abdominal tenderness, no. subjects [2]: 1 | AE Aphthous ulcer, no. subjects [2]: 0 | AE Back pain, % of subjects [2]: (3.7%) | AE Back pain, no. subjects [2]: 1 | AE Bronchitis, no. subjects [2]: 0 | AE Cellulitis, no. subjects [2]: 0 | AE Cogwheel rigidity, % of subjects [2]: (3.7%) | AE Cogwheel rigidity, no. subjects [2]: 1 | AE Contusion, % of subjects [2]: (3.7%) | AE Contusion, no. subjects [2]: 1 | AE Depressed mood, no. subjects [2]: 0 | AE Depression, % of subjects [2]: (3.7%) | AE Depression, no. subjects [2]: 1 | AE Diarrhea, % of subjects [2]: (3.7%) | AE Diarrhea, no. subjects [2]: 1 | AE Dizziness, % of subjects [2]: (3.7%) | AE Dizziness, no. subjects [2]: 1 | AE Drug hypersensitivity, no. subjects [2]: 0 | AE Dry mouth, % of subjects [2]: (7.4%) | AE Dry mouth, no. subjects [2]: 2 | AE Dysgeusia, % of subjects [2]: (3.7%) | AE Dysgeusia, no. subjects [2]: 1 | AE Ear and labyrinth disorders, no. subjects [2]: 0 | AE Ear infection, % of subjects [2]: (3.7%) | AE Ear infection, no. subjects [2]: 1 | AE Epistaxis, % of subjects [2]: (3.7%) | AE Epistaxis, no. subjects [2]: 1 | AE Flank pain, % of subjects [2]: (3.7%) | AE Flank pain, no. subjects [2]: 1 | AE Folliculitis, no. subjects [2]: 0 | AE Gastrointestinal disorders, % of subjects [2]: (22.2%) | AE Gastrointestinal disorders, no. subjects [2]: 6 | AE Headache, % of subjects [2]: (7.4%) | AE Headache, no. subjects [2]: 2 | AE Immune system disorders, no. subjects [2]: 0 | AE Infections and infestations, % of subjects [2]: (11.1%) | AE Infections and infestations, no. subjects [2]: 3 | AE Influenza, no. subjects [2]: 0 | AE Injury, poisoning and procedural complications, % of subjects [2]: (7.4%) | AE Injury, poisoning and procedural complications, no. subjects [2]: 2 | AE Insomnia, % of subjects [2]: (11.1%) | AE Insomnia, no. subjects [2]: 3 | AE Intentional self-injury, % of subjects [2]: (3.7%) | AE Intentional self-injury, no. subjects [2]: 1 | AE Loss of consciousness, % of subjects [2]: (3.7%) | AE Loss of consciousness, no. subjects [2]: 1 | AE Meniere's disease, no. subjects [2]: 0 | AE Metabolism and nutrition disorders, no. subjects [2]: 0 | AE Migraine, % of subjects [2]: (3.7%) | AE Migraine, no. subjects [2]: 1 | AE Musculoskeletal and connective tissue disorders, % of subjects [2]: (7.4%) | AE Musculoskeletal and connective tissue disorders, no. subjects [2]: 2 | AE Musculoskeletal chest pain, % of subjects [2]: (3.7%) | AE Musculoskeletal chest pain, no. subjects [2]: 1 | AE Musculoskeletal pain, % of subjects [2]: (3.7%) | AE Musculoskeletal pain, no. subjects [2]: 1 | AE Nasal congestion, % of subjects [2]: (3.7%) | AE Nasal congestion, no. subjects [2]: 1 | AE Nasopharyngitis, % of subjects [2]: (3.7%) | AE Nasopharyngitis, no. subjects [2]: 1 | AE Nausea, no. subjects [2]: 0 | AE Neck pain, % of subjects [2]: (3.7%) | AE Neck pain, no. subjects [2]: 1 | AE Nervous system disorders, % of subjects [2]: (22.2%) | AE Nervous system disorders, no. subjects [2]: 6 | AE Night sweats, % of subjects [2]: (3.7%) | AE Night sweats, no. subjects [2]: 1 | AE Panic reaction, no. subjects [2]: 0 | AE Pelvic pain, % of subjects [2]: (3.7%) | AE Pelvic pain, no. subjects [2]: 1 | AE Pharyngitis, % of subjects [2]: (7.4%) | AE Pharyngitis, no. subjects [2]: 2 | AE Polydipsia, no. subjects [2]: 0 | AE Procedural pain, no. subjects [2]: 0 | AE Psychiatric disorders, % of subjects [2]: (18.5%) | AE Psychiatric disorders, no. subjects [2]: 5 | AE Rash, no. subjects [2]: 0 | AE Renal and urinary disorders, no. subjects [2]: 0 | AE Renal failure, no. subjects [2]: 0 | AE Reproductive system and breast disorders, % of subjects [2]: (3.7%) | AE Reproductive system and breast disorders, no. subjects [2]: 1 | AE Respiratory, thoracic and mediastinal disorders, % of subjects [2]: (7.4%) | AE Respiratory, thoracic and mediastinal disorders, no. subjects [2]: 2 | AE Restlessness, % of subjects [2]: (3.7%) | AE Restlessness, no. subjects [2]: 1 | AE Road traffic accident, % of subjects [2]: (3.7%) | AE Road traffic accident, no. subjects [2]: 1 | AE Sedation, % of subjects [2]: (3.7%) | AE Sedation, no. subjects [2]: 1 | AE Self-injurious ideation, no. subjects [2]: 0 | AE Sexual dysfunction, no. subjects [2]: 0 | AE Skin and subcutaneous tissue disorders, % of subjects [2]: (3.7%) | AE Skin and subcutaneous tissue disorders, no. subjects [2]: 1 | AE Somnolence, no. subjects [2]: 0 | AE Suicidal ideation, % of subjects [2]: (3.7%) | AE Suicidal ideation, no. subjects [2]: 1 | AE Suicide attempt, no. subjects [2]: 0 | AE Tooth impacted, no. subjects [2]: 0 | AE Toothache, no. subjects [2]: 0 | AE Tremor, % of subjects [2]: (7.4%) | AE Tremor, no. subjects [2]: 2 | AE Upper respiratory tract infection, % of subjects [2]: (3.7%) | AE Upper respiratory tract infection, no. subjects [2]: 1 | AE Viral upper respiratory tract infection, no. subjects [2]: 0 | AE Vomiting, % of subjects [2]: (3.7%) | AE Vomiting, no. subjects [2]: 1 | AE Vulvovaginal mycotic infection, % of subjects [2]: (3.7%) | AE Vulvovaginal mycotic infection, no. subjects [2]: 1 | Serious adverse event: Cellulitis [2]: 0 subjects (%) | Serious adverse event: Infections and infestations [2]: 0 subjects (%) | Serious adverse event: Psychiatric disorders [2]: 1 (3.7%) subjects (%) | Serious adverse event: Suicidal ideation [2]: 1 (3.7%) subjects (%) | Serious adverse event: Suicide attempt [2]: 0 subjects (%) | Total no. subjects with a serious adverse event [2]: 1 (3.7%) subjects (%) | Total no. subjects with adverse events [2]: 13 | Total subjects with adverse events, % of subjects [2]: (48.1%) | Suicide attempts (non-fatal) (follow up period): none
